The results in this text go back to patent publication US11008314B2, “Compounds and methods for modulating interleukin-2-inducible t-cell kinase” (CORVUS PHARMACEUTICALS, INC., priority 2016, dated 2021).

Some results are limits rather than exact numbers.

The target in one series is ITK (Homo sapiens (Human), UniProt Q08881). As to the kind of experiment: IC50 against ITK. The series is classed as biochemical.
In another series the target is TXK (Homo sapiens (Human), UniProt P42681). In words: IC50 against TXK. Format: biochemical. The note with it: for TXK/ITK: ratio of TXK IC50 to ITK IC50.
The target of the next series is JAK3 (Homo sapiens (Human), UniProt P52333). As to the kind of experiment: IC50 against JAK3. The series is classed as biochemical.
The target of the next series is BTK (Homo sapiens (Human), UniProt Q06187). As to the kind of experiment: IC50 against BTK. Format: biochemical.
In another series the test system is Jurkat IL2. In words: Jurkat IL2 IC50. Format: cell-based. Conditions: Homo sapiens, Jurkat cells.
A further series is described as follows: Rat PO PK. The note with it: in vivo, 6 mg/kg, PO 6 mpk.

Chain of TXK (P42681 whole entry, species assumed): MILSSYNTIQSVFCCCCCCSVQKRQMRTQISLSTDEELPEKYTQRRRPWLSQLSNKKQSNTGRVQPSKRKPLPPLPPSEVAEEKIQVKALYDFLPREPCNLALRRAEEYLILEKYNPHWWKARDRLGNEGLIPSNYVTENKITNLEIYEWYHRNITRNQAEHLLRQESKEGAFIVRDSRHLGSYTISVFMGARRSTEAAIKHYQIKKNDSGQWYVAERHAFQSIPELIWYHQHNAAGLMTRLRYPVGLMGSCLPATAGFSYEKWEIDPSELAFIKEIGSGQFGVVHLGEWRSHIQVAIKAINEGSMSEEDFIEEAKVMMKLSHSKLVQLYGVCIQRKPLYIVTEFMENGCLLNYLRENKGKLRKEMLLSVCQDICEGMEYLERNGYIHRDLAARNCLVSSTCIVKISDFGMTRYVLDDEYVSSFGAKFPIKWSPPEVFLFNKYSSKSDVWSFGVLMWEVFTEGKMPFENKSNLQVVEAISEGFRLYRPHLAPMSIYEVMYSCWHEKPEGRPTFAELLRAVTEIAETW
Chain of BTK (Q06187 whole entry, species assumed): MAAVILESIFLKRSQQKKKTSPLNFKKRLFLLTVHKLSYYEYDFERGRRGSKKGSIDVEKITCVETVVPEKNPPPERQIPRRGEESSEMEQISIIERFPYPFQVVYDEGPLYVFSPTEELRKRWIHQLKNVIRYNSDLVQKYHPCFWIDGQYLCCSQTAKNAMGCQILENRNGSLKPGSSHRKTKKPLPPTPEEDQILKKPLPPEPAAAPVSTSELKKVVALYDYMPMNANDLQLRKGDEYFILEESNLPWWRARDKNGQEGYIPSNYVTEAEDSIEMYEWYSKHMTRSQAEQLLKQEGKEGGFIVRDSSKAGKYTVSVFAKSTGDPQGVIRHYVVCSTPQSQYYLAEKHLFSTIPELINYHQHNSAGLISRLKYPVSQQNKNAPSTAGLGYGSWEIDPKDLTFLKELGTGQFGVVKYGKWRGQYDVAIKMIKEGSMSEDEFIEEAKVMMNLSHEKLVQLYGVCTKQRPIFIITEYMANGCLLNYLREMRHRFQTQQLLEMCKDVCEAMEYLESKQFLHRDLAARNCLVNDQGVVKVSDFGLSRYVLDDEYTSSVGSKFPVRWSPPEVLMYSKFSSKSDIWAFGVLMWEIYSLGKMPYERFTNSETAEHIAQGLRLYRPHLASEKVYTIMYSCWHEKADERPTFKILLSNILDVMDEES
Chain of ITK (Q08881 whole entry): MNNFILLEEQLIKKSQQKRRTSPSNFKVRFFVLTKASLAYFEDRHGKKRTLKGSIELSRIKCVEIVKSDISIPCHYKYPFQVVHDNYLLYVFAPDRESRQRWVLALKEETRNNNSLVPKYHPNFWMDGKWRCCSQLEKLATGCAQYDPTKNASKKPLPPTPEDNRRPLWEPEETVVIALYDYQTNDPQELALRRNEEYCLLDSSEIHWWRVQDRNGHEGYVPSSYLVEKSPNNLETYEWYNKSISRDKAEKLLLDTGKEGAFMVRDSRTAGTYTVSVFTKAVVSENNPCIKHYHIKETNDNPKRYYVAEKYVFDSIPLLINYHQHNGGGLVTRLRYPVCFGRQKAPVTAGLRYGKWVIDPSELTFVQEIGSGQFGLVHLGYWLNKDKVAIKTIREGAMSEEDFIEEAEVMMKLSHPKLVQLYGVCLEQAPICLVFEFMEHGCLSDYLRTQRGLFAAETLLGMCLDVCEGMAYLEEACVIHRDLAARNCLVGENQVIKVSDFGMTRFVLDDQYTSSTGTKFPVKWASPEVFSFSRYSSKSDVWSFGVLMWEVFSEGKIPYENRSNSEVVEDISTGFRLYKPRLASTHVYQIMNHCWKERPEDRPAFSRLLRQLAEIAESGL
Chain of JAK3 (P52333 whole entry, species assumed): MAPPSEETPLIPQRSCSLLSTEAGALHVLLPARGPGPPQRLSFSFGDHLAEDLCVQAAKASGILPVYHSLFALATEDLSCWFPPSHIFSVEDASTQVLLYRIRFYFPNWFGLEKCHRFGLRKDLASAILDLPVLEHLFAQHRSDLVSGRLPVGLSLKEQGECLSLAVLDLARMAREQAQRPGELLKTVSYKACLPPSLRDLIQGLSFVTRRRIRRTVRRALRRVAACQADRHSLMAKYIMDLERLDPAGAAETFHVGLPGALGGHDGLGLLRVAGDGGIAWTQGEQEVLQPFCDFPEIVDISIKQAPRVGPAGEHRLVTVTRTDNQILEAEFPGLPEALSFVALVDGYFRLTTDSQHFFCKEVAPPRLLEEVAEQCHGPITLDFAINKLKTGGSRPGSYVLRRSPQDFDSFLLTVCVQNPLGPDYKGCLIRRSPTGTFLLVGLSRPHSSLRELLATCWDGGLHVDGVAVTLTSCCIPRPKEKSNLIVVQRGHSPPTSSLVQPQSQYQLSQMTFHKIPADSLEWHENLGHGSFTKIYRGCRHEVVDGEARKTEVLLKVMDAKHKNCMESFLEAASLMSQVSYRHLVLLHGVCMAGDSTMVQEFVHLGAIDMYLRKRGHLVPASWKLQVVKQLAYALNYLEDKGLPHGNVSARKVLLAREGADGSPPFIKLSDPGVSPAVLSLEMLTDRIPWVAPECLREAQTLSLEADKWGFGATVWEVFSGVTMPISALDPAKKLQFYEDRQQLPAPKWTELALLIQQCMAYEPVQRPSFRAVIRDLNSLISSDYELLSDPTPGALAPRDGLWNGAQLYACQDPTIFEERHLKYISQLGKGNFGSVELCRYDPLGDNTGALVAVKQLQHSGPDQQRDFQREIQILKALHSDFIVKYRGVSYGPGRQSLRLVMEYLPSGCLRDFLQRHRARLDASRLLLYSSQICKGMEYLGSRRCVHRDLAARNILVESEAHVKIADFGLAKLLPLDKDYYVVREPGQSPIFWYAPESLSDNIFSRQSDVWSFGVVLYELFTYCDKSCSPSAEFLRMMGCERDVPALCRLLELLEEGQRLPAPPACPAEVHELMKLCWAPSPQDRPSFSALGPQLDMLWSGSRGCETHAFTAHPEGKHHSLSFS

By IC50 is commonly meant the point on the concentration scale where inhibition reaches its midpoint. By AUC(0-t) is commonly meant exposure summed from dosing to a finite time, without extrapolation to infinity. Low values mean less exposure, high ones more exposure. As a reminder, the Cmax is the peak of the concentration-time curve. The bioavailability is dose-corrected exposure relative to a reference, in per cent. Low values mean little systemic uptake, high ones much systemic uptake. On to `C=CC(=O)N1CCCN(C(=O)c2cc(Sc3cnc(NC(=O)c4cccc(CN(C)C)c4)s3)c(C)cc2OC)CC1` [Compound 33], for which the IC50 on ITK was less than 10 nM; against TXK it was 1000 to 10000 nM; against JAK3, 1000 to 10000 nM; on BTK, 100 to 1000 nM; with Jurkat IL2, 0.1 µM. The TXK/ITK on TXK is 239.91. Further, in the series “Rat PO PK”, the AUC(0-t) was found to be 0.4 ng·h/mL. In “Rat PO PK”, this compound showed a Cmax of 15.7 ng/mL. Further, the bioavailability in the series “Rat PO PK” was 0.4%.
As for `C=CC(=O)N1CCCN(C(=O)c2cc(Sc3cnc(NC(=O)c4ccc(F)c(CN(C)C)c4)s3)c(C)cc2OC)CC1` [Compound 50], the IC50 on ITK was less than 10 nM; on TXK it was 1000 to 10000 nM; against JAK3, 1000 to 10000 nM; against BTK, 100 to 1000 nM; in the series on Jurkat IL2, 0.036 µM. Also, the TXK/ITK at TXK is 230.63. The AUC(0-t) in the series “Rat PO PK” was determined as 3.4 ng·h/mL. The compound further came in with a Cmax in the series “Rat PO PK” of 25.2 ng/mL. The same compound gave a bioavailability in “Rat PO PK” of 3.4%.
With `C=CC(=O)N1CCCN(C(=O)c2cc(Sc3cnc(NC(=O)C4CC4)s3)c(C)cc2OC)CCC1` [Compound 53], the IC50 at ITK was less than 10 nM; on TXK it was 100 to 1000 nM; against JAK3, 1000 to 10000 nM; against BTK, 100 to 1000 nM.
Consider `C=CC(=O)N1CCN(C(=O)c2cc(Sc3cnc(NC(=O)c4cccc(CN(C)C)c4)s3)c(C)cc2C)CC1` [Compound 107], for which the IC50 against ITK was less than 10 nM; on TXK, 10 to 100 nM; against JAK3, 100 to 1000 nM; on BTK, 100 to 1000 nM. Also, the TXK/ITK at TXK is 61.8.
As to `C=CC(=O)N1CCN(C(=O)c2cc(Sc3cnc(Nc4ccccn4)s3)c(C)cc2C)CC1` [Compound 133], the IC50 is less than 10 nM against ITK, less than 10 nM on TXK, 10 to 100 nM against JAK3 and 10 to 100 nM on BTK. The TXK/ITK at TXK is reported as 4.6.
For `C=CC(=O)N1CCN(C(=O)c2cc(Sc3cnc(NC(=O)c4ccsc4)s3)c(C)cc2C)CC1` [Compound 109], the IC50 is less than 10 nM against ITK, 10 to 100 nM at TXK, 10 to 100 nM at JAK3 and 10 to 100 nM on BTK. For the same compound, at TXK, the TXK/ITK is 13.5.
With `C=CC(=O)N1CCN(C(=O)c2cc(Sc3cnc(NC(=O)C4CC4)s3)c(C)cc2OC)[C@@H](C)C1` [Compound 19], the IC50 was less than 10 nM against ITK, less than 10 nM at TXK, 100 to 1000 nM on JAK3 and 10 to 100 nM at BTK. The TXK/ITK on TXK amounted to 6.5873.
Regarding `C=CC(=O)N1CCN(C(=O)c2cc(Sc3cnc(NC(=O)c4cnn(C)c4)s3)c(C)cc2OC)C[C@H]1CC` [Compound 115], the IC50 against ITK is less than 10 nM; against TXK, 10 to 100 nM; on JAK3, 1000 to 10000 nM; against BTK, 100 to 1000 nM. The TXK/ITK on TXK came out at 9.8.
In the same order, the values of `C=CC(=O)N1CCCN(C(=O)c2cc(Sc3cnc(NC(=O)C4CC4)s3)c(C)cc2OC)[C@@H](C)C1` [Compound 72] are 100 to 1000 nM, 1000 to 10000 nM, not below 10000 nM, not below 10000 nM and 1.1846.
Regarding `C=CC(=O)N1C[C@H]2CC[C@@H](C1)N2C(=O)c1cc(Sc2cnc(NC(=O)c3ccsc3)s2)c(C)cc1OC` [Compound 143, N-(5-((5-((1R,5S)-3-acryloyl-3,8-diazabicyclo[3.2.1]octane-8-carbonyl)-4-methoxy-2-methylphenyl)thio)thiazol-2-yl)thiophene-3-carboxamide], the concentration for half-maximal inhibition (IC50) on ITK was less than 10 nM; against TXK, less than 10 nM; at JAK3 it was 10 to 100 nM; on BTK, less than 10 nM. Besides, the TXK/ITK on TXK came out at 3.51.
For the compound `C=CC(=O)N1CCCN(C(=O)c2cc(Sc3cnc(NC(=O)c4cnsc4)s3)c(C)cc2OC)C[C@H]1CC` [Compound 121], the IC50 against ITK was less than 10 nM; against TXK, 100 to 1000 nM; against JAK3, 1000 to 10000 nM; against BTK, 100 to 1000 nM. On TXK, the TXK/ITK was found to be 146.1.
